Results taken from PubChem BioAssay AID2060495 (Molecular Pharmacology Branch, DTP, NCI, 2025).

System: 521955-158-R2-J5-PDC complex spheroid viability
Assay: Anticancer human tumor 521955-158-R2-J5-PDC patient-derived pancreatic carcinoma cell line growth inhibition [GQUAD]
Conditions: for IC50: curve of first compound; for viability, T/C: stronger effect = lower value
Source text: DNA G-quadruplex Stabilizer Agents in Combinations in Complex Spheroids
A high-throughput screen of multi-cell type tumor spheroids was designed to identify active combinations of DNA G-quadruplex stabilizer agents and targeted small molecules. Complex spheroids include a stromal component modeled by human endothelial cells (HUVEC) and fibroblasts modeled by human mesenchymal stem cells (MSCs). The concentration ranges selected for each drug and investigational agent were based upon clinically achievable concentrations if the clinical Cmax of the agent was known.
Compounds. The drugs and investigational agents: pidnarulex (CX-5461; NSC782164), APTO-253 (NSC789042), BRACO-19 (NSC847499), peposertib (NSC802822), ceralasertib (NSC780249), elimusertib (NSC800525), camonsertib (NSC841442), AZD-1390 (NSC803789), olaparib (NSC753686), talazoparib (NSC767125), ART-558 (NSC835418), sotorasib (NSC818433), MRTX-1133 (NSC836407), SN-38 (NSC673596), topotecan (NSC609699), etoposide (NSC141540), doxorubicin (NSC123127), gemcitabine (NSC613327), 5-fluorouracil (NSC19893), paclitaxel (NSC125973), vemurafenib (NSC761431), panobinostat (NSC761190), R-306465 (JNJ-16241199; NSC773264), adavosertib (NSC754352), TP-3654 (NSC805149), carboplatin (NSC241240), KSQ-4279 (NSC840948), and staurosporine (NSC755774) were obtained from the National Cancer Institute (NCI) Developmental Therapeutics Program Chemical Repository (34). The FDA-approved anticancer drug set is available from the NCI Developmental Therapeutics Program. […] The stock solutions were prepared in dimethyl sulfoxide (DMSO, Sigma-Aldrich, St. Louis, MO, cat. D2650) at 800-fold the tested concentration and stored at -70 degrees C prior to their use. All drugs and investigational agents were tested over a range starting from a high concentration at or near the clinical Cmax and decreasing in half-log increments. If the clinical Cmax for an agent had not been determined, the highest concentration tested was 10 microM.
2.3 Cell Culture. All cells were maintained in an incubator at 37 degrees C and 5% CO2 with 95% humidity. The PDC lines were cultured according to standard operating procedures established by the NCI PDMR. All PDCs were thawed and cultured in Matrigel-coated flasks prepared with a working solution of 1X Ham's F-12 nutrient mix, without supplementation (Invitrogen, cat. 11765054), 100 U/mL penicillin-streptomycin (Invitrogen, cat. 15140122), and 2.5% Matrigel (Corning Inc., cat. 354248) for the first three passages. The 857933-349-R-J2-PDC line was cultured in 6C/Colon 1B media, which includes advanced DMEM/F-12 (Thermo Fisher Scientific, cat. 12634028), 10 mM HEPES (Thermo Fisher Scientific, cat. 15630080), 1X GlutaMAX supplement (Thermo Fisher Scientific, cat. 35050061), 0.1 mg/mL primocin (InvivoGen, cat. ant-pm-2), 10% defined fetal bovine serum, heat inactivated (HyClone Laboratories Inc., cat. SH30070.03HI), 50% L-WRN conditioned media (ATCC, cat. CRL-3276), 1.25 mM N-Acetyl-L-cysteine (Sigma-Aldrich, cat. A9165), 10 mM nicotinamide (Sigma-Aldrich, cat. N0636), 1X B-27 supplement (Thermo Fisher Scientific, cat. 17504044), 1X N-2 supplement (Thermo Fisher Scientific, cat. 17502048), 10 microM Y-27632 dihydrochloride (Tocris Bioscience, cat. 1254), and 50 ng/mL human EGF recombinant protein (Thermo Fisher Scientific, cat. PHG0311). The 485176-168-R4-J1-PDC line was cultured in Panc media, which includes all 6C/Colon 1B media components plus 100 ng/mL human FGF-10 (Thermo Fisher Scientific, cat. 100-26), 500 nM SB-431542 (Selleckchem, cat. S1067), and gastrin (Tocris, cat. 3006).
[…]

[1] = second compound 0.0316 µM, first compound 0.0316 µM
[2] = second compound 0.0316 µM, first compound 0.1 µM
[3] = second compound 0.0316 µM, first compound 0.316 µM
[4] = second compound 0.0316 µM, first compound 1 µM
[5] = second compound 0.0316 µM, first compound 3.16 µM
[6] = second compound 0.0316 µM, first compound 10 µM
[7] = second compound 0.1 µM, first compound 0.0316 µM
[8] = second compound 0.1 µM, first compound 0.1 µM
[9] = second compound 0.1 µM, first compound 0.316 µM
[10] = second compound 0.1 µM, first compound 1 µM
[11] = second compound 0.1 µM, first compound 3.16 µM
[12] = second compound 0.1 µM, first compound 10 µM
[13] = second compound 0.316 µM, first compound 0.0316 µM
[14] = second compound 0.316 µM, first compound 0.1 µM
[15] = second compound 0.316 µM, first compound 0.316 µM
[16] = second compound 0.316 µM, first compound 1 µM
[17] = second compound 0.316 µM, first compound 3.16 µM
[18] = second compound 0.316 µM, first compound 10 µM
[19] = second compound 1 µM, first compound 0.0316 µM
[20] = second compound 1 µM, first compound 0.1 µM
[21] = second compound 1 µM, first compound 0.316 µM
[22] = second compound 1 µM, first compound 1 µM
[23] = second compound 1 µM, first compound 3.16 µM
[24] = second compound 1 µM, first compound 10 µM
[25] = second compound 3.16 µM, first compound 0.0316 µM
[26] = second compound 3.16 µM, first compound 0.1 µM
[27] = second compound 3.16 µM, first compound 0.316 µM
[28] = second compound 3.16 µM, first compound 1 µM
[29] = second compound 3.16 µM, first compound 3.16 µM
[30] = second compound 3.16 µM, first compound 10 µM
[31] = second compound 10 µM, first compound 0.0316 µM
[32] = second compound 10 µM, first compound 0.1 µM
[33] = second compound 10 µM, first compound 0.316 µM
[34] = second compound 10 µM, first compound 1 µM
[35] = second compound 10 µM, first compound 3.16 µM
[36] = second compound 10 µM, first compound 10 µM
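Further: spheroids exposed to agents for one week before reading.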
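Wherever viability, T/C is given: 100% = DMSO vehicle control viability.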

`C=CCn1c(=O)c2cnc(Nc3ccc(N4CCN(C)CC4)cc3)nc2n1-c1cccc(C(C)(C)O)n1` + Cc1[nH]c2ccc(F)cc2c1-c1nc2c3cccnc3c3ncccc3c2[nH]1 showed an IC50 (second compound 0.0316 µM) of 217 nM, an IC50 (second compound 0.1 µM) of 182 nM and an IC50 (second compound 0.316 µM) of 177 nM. For the same molecule, the IC50 (second compound 1 µM) was 175 nM, the IC50 (second compound 3.16 µM) was 159 nM and the IC50 (second compound 10 µM) was 192 nM. The viability, T/C [1] was 103%, the viability, T/C [2] was 84.9% and the viability, T/C [3] was 33.1%. It also gave a viability, T/C [4] of 14.6%, a viability, T/C [5] of 12.6% and a viability, T/C [6] of 12.1%. For the same molecule, the viability, T/C [7] was 95.1%, the viability, T/C [8] was 75.8% and the viability, T/C [9] was 25.8%. The viability, T/C [10] was 15.8%, the viability, T/C [11] was 11.1% and the viability, T/C [12] was 10.5%. It also gave a viability, T/C [13] of 79.9%, a viability, T/C [14] of 66.6% and a viability, T/C [15] of 33.2%. For the same molecule, the viability, T/C [16] was 15.2%, the viability, T/C [17] was 13.2% and the viability, T/C [18] was 12.1%. For the same molecule, the viability, T/C [19] was 84.1%, the viability, T/C [20] was 75.4% and the viability, T/C [21] was 23.4%. It also gave a viability, T/C [22] of 12.8%, a viability, T/C [23] of 12.6% and a viability, T/C [24] of 10.4%. For the same molecule, the viability, T/C [25] was 77%, the viability, T/C [26] was 60.4% and the viability, T/C [27] was 34.8%. It also gave a viability, T/C [28] of 15%, a viability, T/C [29] of 15.3% and a viability, T/C [30] of 19.6%. The viability, T/C [31] was 68.7%, the viability, T/C [32] was 68.3% and the viability, T/C [33] was 36.5%. The viability, T/C [34] was 18.2%, the viability, T/C [35] was 14% and the viability, T/C [36] was 15.6%.
Work on `COc1cc(C2c3cc4c(cc3C(OC3OC5COC(C)OC5C(O)C3O)C3COC(=O)C23)OCO4)cc(OC)c1O` (centres undefined) + Cc1[nH]c2ccc(F)cc2c1-c1nc2c3cccnc3c3ncccc3c2[nH]1 yielded an IC50 (second compound 0.0316 µM) of 645 nM, an IC50 (second compound 0.1 µM) of 576 nM and an IC50 (second compound 0.316 µM) of 661 nM. The IC50 (second compound 1 µM) was 628 nM, the IC50 (second compound 3.16 µM) was 653 nM and the IC50 (second compound 10 µM) was 556 nM. The viability, T/C [1] was 99.5%, the viability, T/C [2] was 72.6% and the viability, T/C [3] was 73%. For the same molecule, the viability, T/C [4] was 41%, the viability, T/C [5] was 14% and the viability, T/C [6] was 9.66%. It also gave a viability, T/C [7] of 81%, a viability, T/C [8] of 102% and a viability, T/C [9] of 70.6%. It also gave a viability, T/C [10] of 29.8%, a viability, T/C [11] of 15.1% and a viability, T/C [12] of 10.7%. The viability, T/C [13] was 104%, the viability, T/C [14] was 94.9% and the viability, T/C [15] was 76.3%. For the same molecule, the viability, T/C [16] was 34%, the viability, T/C [17] was 18.7% and the viability, T/C [18] was 7.53%. For the same molecule, the viability, T/C [19] was 84.2%, the viability, T/C [20] was 114% and the viability, T/C [21] was 82.2%. The viability, T/C [22] was 27.6%, the viability, T/C [23] was 15.4% and the viability, T/C [24] was 9.36%. The viability, T/C [25] was 74.8%, the viability, T/C [26] was 100% and the viability, T/C [27] was 73.1%. The viability, T/C [28] was 35.6%, the viability, T/C [29] was 14.7% and the viability, T/C [30] was 11.6%. For the same molecule, the viability, T/C [31] was 96.3%, the viability, T/C [32] was 94% and the viability, T/C [33] was 66.8%. The viability, T/C [34] was 31.9%, the viability, T/C [35] was 17.1% and the viability, T/C [36] was 12.4%.
